Test results taken from patent US20140106387A1, “METHOD FOR CONTROLLING NAD(P)/NAD(P)H RATIO BY OXIDOREDUCTASE” (MD BIOALPHA CO., LTD., priority 2006, published 2014).

What was measured:
HepG2 cells [1] = experiment: calcium influx (Fluo-4) in HepG2 cells; format: cell-based, human; conditions: dicoumarol 5 μM pretreated 30 min
Protocol: Cells were grown on a coverslip in a culture medium for 24 hours, maintained in an RPMI 1640 serum-free medium for 1 hour, and pretreated with a calcium indicator Fluo-4 (5 μM) for 30 min. After pretreatment, the coverslip was mounted on a slide glass. Changes in an intracellular calcium concentration were observed using a fluorescence microscope (Carl Zeiss) for 30 sec, and cells were treated with a candidate compound (e.g. pyran-1,2-naphthoquinone) simultaneously with consecutive imaging of calcium changes using a fluorescence microscope (Carl Zeiss) for 2 sec. […] Changes in the intracellular calcium concentration were observed using a fluorescence microscope (Carl Zeiss) for 30 sec, and cells were treated with pyre-1,2-naphthoquinone (10 μM), followed by continuous shooting of calcium changes using a fluorescence microscope for 2 sec. Using an LSM Image Browser program (Carl Zeiss), 300 images taken for 10 min every 2 seconds were sorted and ordered in a time sequence and plotted on a graph.
For determination of the inner mitochondrial membrane potential (ΔΨm), 20 nM of TMRE (tetramethylrhodamine ethyl ester) as a fluorescent indicator was continuously applied to be loaded on cells. In order to monitor mitochondrial Ca^2+, cells on glass coverslips were loaded with 10 μM Rhod-2 AM via cold loading/warm incubation. In order to monitor cytosolic Ca^2+, cells were co-loaded with 10 μM Fluo-4 AM at 37′C for 30 min. […] Images for TMRE (red fluorescence), Rhod-2 (red fluorescence) and Fluo-4 (green fluorescence) were obtained using an inverted Zeiss 510META laser-scanning confocal microscope equipped with ×63 numerical aperture, 1.4 oil-immersion planapochromat lens. Green fluorescence and red fluorescence were illuminated with light of 488 nm and 543 nm. […]
Cells were cultured for 24 hours and then pre-treated with Fluo-4 for 30 min. Cells immobilized on a coverslip were transferred to a slide glass and treated with pyrano-1,2-naphthoquinone (10 μM), and at the same time images were taken every 2 seconds for 10 min using a fluorescence microscope.

HepG2 cells [2] = experiment: mitochondrial membrane potential (TMRE fluorescence) in HepG2 cells; format: cell-based, human; conditions: dicoumarol-treated cells
Protocol: For determination of the inner mitochondrial membrane potential (ΔΨm), 20 nM of TMRE (tetramethylrhodamine ethyl ester) as a fluorescent indicator was continuously applied to be loaded on cells. In order to monitor mitochondrial Ca^2+, cells on glass coverslips were loaded with 10 μM Rhod-2 AM via cold loading/warm incubation. In order to monitor cytosolic Ca^2+, cells were co-loaded with 10 μM Fluo-4 AM at 37′C for 30 min. The cells were washed twice with a KB solution, and mounted in a perfusion chamber. Fluorescent imaging was taken using a confocal laser scanning microscope (LSM-510 META, Carl Zeiss) at a magnification of ×200 and ×400, in conjunction with appropriate laser lines and a filter set. Image analysis was carried out using LSM-510 META software (Zeiss). Images for TMRE (red fluorescence), Rhod-2 (red fluorescence) and Fluo-4 (green fluorescence) were obtained using an inverted Zeiss 510META laser-scanning confocal microscope equipped with ×63 numerical aperture, 1.4 oil-immersion planapochromat lens. Green fluorescence and red fluorescence were illuminated with light of 488 nm and 543 nm. Incident light was passed through a 545 nm dichroic mirror and observed via a 500 to 530 nm band-pass (green) filter and a 560 nm long-pass (red) barrier filter.
However, such effects were not observed in HEK293 cells. […]

AMPK = AMPK phosphorylation in HEK293 cells (Western blot); format: cell-based, human; conditions: HEK293 cells, AICAR 2 mM, 30 min
Protocol: Cells were lysed in SDS sample buffer (62.5 mM Tris HCl (pH 6.8), 6% (w/v) SDS, 30% glycerol, 125 mM DTT, and 0.03% (w/v) bromophenol blue). The total cell lysates were boiled at a temperature of 100° C. for 5 min and electrophoresed on a sodium dodecyl sulfate-polyacrylamide gel, and proteins were transferred on a nitrocellulose membrane. The membrane was reacted in TBS (5% (w/v) milk and 0.1% Tween 20) for 1 hour, and then reacted with primary antibodies for 2 hours. Next, the membrane was developed using HRP-conjugated secondary antibodies (Phototope-HRP Western Blot Detection Kit, New England Biolabs, Beverly, Mass.).
In order to investigate the importance of an NQO1 protein in phosphorylation of AMP kinase, HepG2, MCF-7 and HEK293 cells were seeded onto 60 mm plates at a density of 1×10^6 cells/plate. After growing the cells for 24 hours, the culture medium was replaced with a serum-free medium, and cells were treated with pyrano-1,2-naphthoquinone (10 μM) for 30 min, respectively, in combination with a control group (DMSO). Cells were lysed in RIPA buffer and amounts of all proteins were quantified using a spectrophotometer, and 50 μg of the protein was subjected to electrophoresis. AMP kinase phosphorylation was examined using Anti-AMPK and Anti-pT172-AMPK, whereas the NQO1 protein was assayed using Anti-NQO1. From the fact that AMP kinase phosphorylation by pyran-1,2-naphthoquinone (10 μM) was not observed in HEK293 cells, it can be seen that the NQO1 protein is crucial for phosphorylation of AMP kinase.
In order to examine that an activity of NQO1 is important for the phosphorylation of AMP kinase, HEK293 cells were seeded onto a 6-well plate at a density of 1×10^5 cells/well, cultured for 24 hours, and transfected with pSG5-HA-NQO1 (500 ng) and pSG5-HA-NOQ1-C609T (500 ng) plasmids. After 24 hours, the culture medium was replaced with a serum-free medium, and the cells were treated with pyrano-1,2-naphthoquinone (10 μM) and AICAR (2 mM) for 30 min, in combination with a control (DMSO). AMP kinase phosphorylation were assayed using Anti-AMPK and Anti-pT172-AMPK, whereas transfected NQO1 was assayed using Anti-HA.
In addition, AMPK phosphorylation/activation was not promoted in HEK293 cells, except for HEK293 cells transfected with wild type NQO1.

[3] = body weight and dietary intake of leptin receptor-deficient (ob/ob) mice; format: in vivo, mouse; conditions: for Weight reduction In ob/ob mice (4 wk): after four weeks, relative to ob/ob mice without administration (control), method of Example 23
Protocol: All experimental animal procedures were performed according to a guideline of Institutional Animal Care and Use Committee, Chungnam National University School of Medicine. OLETF rats were purchased from Otsuka Research Institute. Male ob/ob and C57BL/6 mice were purchased from Jackson Laboratory. Animals were housed in a breeding room maintained at a constant temperature of […] and a 12 h/12 h light/dark (L/D) cycle. 4-week-old C57BL/6 male mice were fed ad libitum high fat diet (HFD, 24% (w/w) and 45% calories as fat, Research Diets Inc., New Brunswick, N.J. 08901, US) for 7 weeks. Mouse groups were divided into an untreated group, a vehicle-treated group (calcium silicate), a pair-fed group and a candidate compound-treated group (calcium silicate-coated […] nanoparticles). Body weight and dietary intake of animals were daily measured. Upon completion of experiments, some mice of each group were anesthetized and received MRI examinations. The remaining mice of the groups were anatomized and tissue weight thereof was measured. Epidydimal fat, liver, soleus muscle and extensor digitorum longus (EDL) were prepared, and immunohistochemical, oil-red 0 and pH-sensitive ATPase staining were performed for analysis.
FIGS. 46 and 47 show changes in dietary intake/body weight and changes in body weight for 56 days, according to daily administration of pyrano-1,2-naphthoquinone into leptin receptor-deficient (ob/ob) mice at a dose of 200 mg/kg via an oral route.
This Example was intended to examine effects of varying in vivo NAD(P)^+/NAD(P)H ratio by arbitrary external supply of NAD(P)^+, a method capable of elevating the NAD(P)^+/NAD(P)H ratio in vivo. 100 mg/kg of NAD^+ was administered daily to leptin receptor-deficient (ob/ob) mice via an intraperitoneal (i.p.) route. A control mice group was given i.p. administration of physiological saline at the same dose. Changes in dietary intake/body weight (A) and changes in body weight (B) were measured for 30 days.
200 mg/kg of DMF was daily administered to leptin receptor-deficient (ob/ob) mice via an oral route. A control group received daily i.p. administration of physiological saline at the same dose. Changes in body weight (A) and changes in dietary intake (B) were measured for 30 days. It was confirmed that dietary intake of the treatment group was regulated to a 60 to 70% level of the control group.
(§1) For a variety of NQO1-activating candidate compounds as listed in Table 1 below, a decrease of NAD(P)H was measured based on the aforesaid experimental method (disclosed in Section 10 hereinbefore: NADH recycling assay). In addition, according to the experimental method given in Example 23, the body weight of ob/ob mice after four weeks was measured.
(§2) In this connection, the decreasing degree of NAD(P)H was expressed as a relative amount of NAD(P)H measured upon administration of the NQO1-activating candidate compound, by taking the amount of NAD(P)H in the absence of the NQO1 activator NAD(P)H to be 100. In addition, the degree of the body weight loss was expressed as a percentage of the body weight of ob/ob mice with administration of the NQO1-activating candidate compound, relative to the body weight of ob/ob mice without administration of the NQO1-activating candidate compound (control) after four weeks.

NQO1 = experiment: NAD(P)H recycling assay (decrease of NAD(P)H by NQO1-activating candidate compounds); format: biochemical; conditions: for Residual amount of NAD(P)H(%): relative amount of NAD(P)H, amount in the absence of the NQO1 activator taken to be 100; for decrease of NAD(P)H and consequent body weight reduction: summary of Table 1 in words
Protocol: (10) NAD(P)H Recycling Assay
An NADH recycling assay was carried out using the above-extracted S9 supernatant or human recombinant NQO1 (hrNQO1). 20 μg of the S9 supernatant or 0.5 unit of hrNQO1 in conjunction with 200 μM NAD(P)H were added to a 25 mM Tris/HCl (pH 7.4) solution containing 0.2 mg/mL bovine serum albumin. The enzymatic reaction was initiated with addition of a […] compound and absorbance changes were monitored and recorded at 340 nm for 10 min.
as §1, §2

Compound | Residual amount of NAD(P)H(%) (NQO1) | Weight reduction In ob/ob mice (4 wk) [3] | decrease of NAD(P)H and consequent body weight reduction (NQO1) | also measured
O=c1oc2ccccc2c(O)c1Cc1c(O)c2ccccc2oc1=O [dicoumarol, reference compound] | – | – | – | effect on calcium influx by pyrano-1,2-naphthoquinone (HepG2 cells [1]): inhibited; effects of βL on ΔΨm in dicoumarol-treated cells (HepG2 cells [2]): did not exhibit such effects
NC(=O)c1ncn([C@@H]2O[C@H](CO)[C@@H](O)[C@H]2O)c1N [AICAR, 5-aminoimidazole-4-carboxamide-1-beta-D-ribofuranoside, reference compound] | – | – | – | phosphorylation of AMPK (AMPK): increase in phosphorylation of AMPK
NC(=O)c1ccc[n+]([C@@H]2O[C@H](COP(=O)([O-])OP(=O)(O)OC[C@H]3O[C@@H](n4cnc5c(N)ncnc54)[C@H](O)[C@@H]3O)[C@@H](O)[C@H]2O)c1 [NAD^+] | – | – | – | body weight ([3]; NAD+ 100 mg/kg daily i.p., 30 days): continuous weight loss for 30 days; dietary intake/body weight ([3]; NAD+ 100 mg/kg daily i.p., at around 10 days): notably decreased
CC(C)C1=CC2OC3=C(CC2(C)CC1)C(=O)c1ccccc1C3=O (centres unmarked) [3-Isoprophy-12a-methyl-2,4a,12,12a-tetradro-7H-benzo[b]xanthene-6,11-dione] | 99.45 ± 3.56% | 0.3 ± 2.8% | – | –
CC1C2=C(OC1(C)C)c1ccccc1C(=O)C2=O (centres unmarked) [2,2,3-Trimethyl-2,3-dihydro-naphtho[1,2-b]furan-4,5-dione] | 52.75 ± 1.88% | −27.9 ± 0.5% | significant decrease of NAD(P)H | –
CC1OC2=C(C(=O)C(=O)c3ccccc32)C1(C)C (centres unmarked) [2,3,3-Trimethyl-2,3-dihydro-naphtho[1,2-b]furan-4,5-dione] | 64.39 ± 1.69% | −46.2 ± 11.1% | significant decrease of NAD(P)H | –
COC1=C(OC)C(=O)C(C/C=C(\C)CC/C=C(\C)CC/C=C(\C)CC/C=C(\C)CC/C=C(\C)CC/C=C(\C)CC/C=C(\C)CC/C=C(\C)CC/C=C(\C)CCC=C(C)C)=C(C)C1=O [CoQ10, reference compound] | 101.69 ± 1.32% | 2.3 ± 3.5− % | – | –
CC1CC2=C(O1)c1ccccc1C(=O)C2=O (centres unmarked) [2-Methyl-2,3-dihydro-naphtho[1,2-b]furan-4,5-dione] | 49.73 ± 1.98% | −39.5 ± 3.1% | significant decrease of NAD(P)H | –
CC1(C)CC2=C(O1)c1ccccc1C(=O)C2=O [2,2-Dimethyl-2,3-dihydro-naphtho[1,2-b]furan-4,5-dione] | 45.9 ± 3.90% | −27.8 ± 8.1% | significant decrease of NAD(P)H | –
CC(C)=CC1(C)CCC2=C(O1)C(=O)c1ccccc1C2=O (centres unmarked) [2-Methyl-2-(2-methyl-propenyl)-3,4-dihydro-2H-benzo[g]Chromene-5,10-dione] | 99.74 ± 2.69% | −0.7 ± 2.0% | – | –
CC1(C)CCC2=C(O1)C(=O)c1ccccc1C2=O [2,2-Dmethyl-3,4-dihydro-2H-benzo[g]chromene-5,10-dione] | 95 ± 4.5% | 1.3 ± 2.8% | – | –
CC(C)C1=CC2OC3=C(CC2(C)CC1)C(=O)C(=O)c1ccccc13 (centres unmarked) [10-Isopropyl-7a-methyl-7a,8,9,11a-tetrahydro-7H-benzo[c]xanthene-5,6-dione] | 77.55 ± 4.19% | −6.7 ± 2.1% | significant decrease of NAD(P)H | –
CC1=CC(=O)c2ccccc2C1=O [Menadione, 2-Methyl-1,4-naphthoquinone, reference compound] | 85.65 ± 2.58% | −2.7 ± 2.0% | – | –
CC(C)=C/C(C)=C/C1(C)OC2=C(CC1C)C(=O)C(=O)c1ccccc12 (centres unmarked) [2-(2,4-Dimethyl-penta-1,3-dienyl)-2,3-dimethyl-3,4-dihydro-2H-benzo[h]chromene-5,6-dione] | 98.06 ± 5.14% | −2.2 ± 0.07% | – | –
